Assay results from ChEMBL document CHEMBL3525902, “In vitro metabolism of oxymetazoline: evidence for bioactivation to a reactive metabolite” (Drug Metab Dispos, 2011).

Legend:
Cytochrome P450 2C19 [1] = molecular target: T1, Cytochrome P450 2C19 (Homo sapiens, UniProt P33261); experiment: Activity of human recombinant CYP2C19 assessed as (S)-2-amino-5-((R)-3-(5-tert-butyl-2-((4,5-dihydro-1H-imidazol-2-yl)methyl)-4-hydroxy-3-methylbenzylthio)-1-(carboxymethylamino)-1-oxopropan-2-ylamino)-5-oxopentanoic acid formation at 50 uM in presence of NADPH and glutathione by LC-MS/MS method; assay type: ADME; settings: recombinant enzyme
Cytochrome P450 1A2 = molecular target: T2, Cytochrome P450 1A2 (Homo sapiens, UniProt P05177); experiment: Activity of human recombinant CYP1A2 assessed as metabolite formation at 50 uM in presence of NADPH by LC-MS/MS method; assay type: ADME; settings: recombinant enzyme
T2 sequence (P05177 whole entry): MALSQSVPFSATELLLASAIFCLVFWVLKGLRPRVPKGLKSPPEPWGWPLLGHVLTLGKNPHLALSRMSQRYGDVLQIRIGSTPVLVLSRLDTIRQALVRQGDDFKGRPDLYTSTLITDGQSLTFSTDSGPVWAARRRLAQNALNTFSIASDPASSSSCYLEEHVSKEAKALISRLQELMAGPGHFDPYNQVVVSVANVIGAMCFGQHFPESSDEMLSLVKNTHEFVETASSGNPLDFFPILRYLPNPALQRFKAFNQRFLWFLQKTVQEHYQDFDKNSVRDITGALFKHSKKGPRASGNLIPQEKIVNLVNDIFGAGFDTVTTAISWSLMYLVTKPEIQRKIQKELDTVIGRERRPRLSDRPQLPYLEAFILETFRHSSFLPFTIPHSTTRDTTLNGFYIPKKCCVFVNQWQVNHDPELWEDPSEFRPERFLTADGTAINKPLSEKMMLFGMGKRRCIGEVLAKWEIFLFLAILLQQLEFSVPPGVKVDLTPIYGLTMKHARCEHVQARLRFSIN

Cytochrome P450 2C8 = molecular target: T3, Cytochrome P450 2C8 (Homo sapiens, UniProt P10632); experiment: Activity of human recombinant CYP2C8 assessed as metabolite formation at 50 uM in presence of NADPH by LC-MS/MS method; assay type: ADME; settings: recombinant enzyme
T3 sequence (P10632 whole entry): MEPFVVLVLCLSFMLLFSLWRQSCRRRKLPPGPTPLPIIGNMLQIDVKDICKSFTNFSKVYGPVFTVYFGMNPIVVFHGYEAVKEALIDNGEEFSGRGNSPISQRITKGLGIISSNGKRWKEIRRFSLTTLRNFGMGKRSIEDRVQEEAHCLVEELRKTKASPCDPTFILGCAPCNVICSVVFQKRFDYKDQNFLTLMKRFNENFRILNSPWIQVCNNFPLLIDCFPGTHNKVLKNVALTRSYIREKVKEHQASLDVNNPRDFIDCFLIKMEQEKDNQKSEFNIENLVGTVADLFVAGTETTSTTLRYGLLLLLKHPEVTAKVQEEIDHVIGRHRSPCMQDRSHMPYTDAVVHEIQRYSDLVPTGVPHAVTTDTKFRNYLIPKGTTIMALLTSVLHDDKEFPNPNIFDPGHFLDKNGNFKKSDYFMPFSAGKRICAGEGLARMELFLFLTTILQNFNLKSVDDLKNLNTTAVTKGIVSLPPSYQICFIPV

Cytochrome P450 3A4 = Cytochrome P450 3A4 (Homo sapiens, UniProt P08684); experiment: Activity of human recombinant CYP3A4 assessed as metabolite formation at 50 uM in presence of NADPH by LC-MS/MS method; assay type: ADME; settings: recombinant enzyme
[2] = Drug metabolism in NADPH supplemented rat liver S9 fraction assessed as 3-((4,5-dihydro-1H-imidazol-2-yl)methyl)-6-(1-hydroxy-2-methylpropan-2-yl)-2,4-dimethylphenol formation at 50 uM in presence of glutathione by LC-MS/MS method; assay type: ADME, subcellular; settings: s9, 50 µM
[3] = Drug metabolism in NADPH supplemented rat liver S9 fraction assessed as 3-((1H-imidazol-2-yl)methyl)-6-(1-hydroxy-2-methylpropan-2-yl)-2,4-dimethylphenol formation at 50 uM in presence of glutathione by LC-MS/MS method; assay type: ADME, subcellular; settings: s9, 50 µM
[4] = Drug metabolism in NADPH supplemented rabbit liver S9 fraction assessed as 3-((4,5-dihydro-1H-imidazol-2-yl)methyl)-6-(1-hydroxy-2-methylpropan-2-yl)-2,4-dimethylphenol formation at 50 uM in presence of glutathione by LC-MS/MS method; assay type: ADME, subcellular, Oryctolagus cuniculus; settings: s9, 50 µM
[5] = Drug metabolism in NADPH supplemented rabbit liver microsomes fraction assessed as 3-((1H-imidazol-2-yl)methyl)-6-(1-hydroxy-2-methylpropan-2-yl)-2,4-dimethylphenol formation at 50 uM after 1 hr by LC-MS/MS method; assay type: ADME, Oryctolagus cuniculus
Liver microsome [6] = experiment: Drug metabolism in NADPH supplemented rat liver microsomes fraction assessed as 3-((4,5-dihydro-1H-imidazol-2-yl)methyl)-6-(1-hydroxy-2-methylpropan-2-yl)-2,4-dimethylphenol formation at 50 uM after 1 hr by LC-MS/MS method; assay type: ADME
Liver microsome [7] = experiment: Drug metabolism in NADPH supplemented rat liver microsomes fraction assessed as 3-((1H-imidazol-2-yl)methyl)-6-(1-hydroxy-2-methylpropan-2-yl)-2,4-dimethylphenol formation at 50 uM after 1 hr by LC-MS/MS method; assay type: ADME
Liver microsome [8] = experiment: Drug metabolism in NADPH supplemented human liver microsomes fraction assessed as 3-((4,5-dihydro-1H-imidazol-2-yl)methyl)-6-(1-hydroxy-2-methylpropan-2-yl)-2,4-dimethylphenol formation at 50 uM after 1 hr by LC-MS/MS method; assay type: ADME
[9] = Drug metabolism in NADPH supplemented human liver S9 fraction assessed as 3-((4,5-dihydro-1H-imidazol-2-yl)methyl)-6-(1-hydroxy-2-methylpropan-2-yl)-2,4-dimethylphenol formation at 50 uM in presence of glutathione by LC-MS/MS method; assay type: ADME, subcellular; settings: s9, 50 µM
[10] = Drug metabolism in NADPH supplemented human liver S9 fraction assessed as 3-((1H-imidazol-2-yl)methyl)-6-(1-hydroxy-2-methylpropan-2-yl)-2,4-dimethylphenol formation at 50 uM in presence of glutathione by LC-MS/MS method; assay type: ADME, subcellular; settings: s9, 50 µM
Cytochrome P450 2C19 [11] = molecular target: T1, Cytochrome P450 2C19; experiment: Activity of human recombinant CYP2C19 assessed as 3-((4,5-dihydro-1H-imidazol-2-yl)methyl)-6-(1-hydroxy-2-methylpropan-2-yl)-2,4-dimethylphenol formation at 50 uM in presence of NADPH by LC-MS/MS method; assay type: ADME; settings: recombinant enzyme

Measured: Drug metabolism

T1 sequence (P33261 whole entry): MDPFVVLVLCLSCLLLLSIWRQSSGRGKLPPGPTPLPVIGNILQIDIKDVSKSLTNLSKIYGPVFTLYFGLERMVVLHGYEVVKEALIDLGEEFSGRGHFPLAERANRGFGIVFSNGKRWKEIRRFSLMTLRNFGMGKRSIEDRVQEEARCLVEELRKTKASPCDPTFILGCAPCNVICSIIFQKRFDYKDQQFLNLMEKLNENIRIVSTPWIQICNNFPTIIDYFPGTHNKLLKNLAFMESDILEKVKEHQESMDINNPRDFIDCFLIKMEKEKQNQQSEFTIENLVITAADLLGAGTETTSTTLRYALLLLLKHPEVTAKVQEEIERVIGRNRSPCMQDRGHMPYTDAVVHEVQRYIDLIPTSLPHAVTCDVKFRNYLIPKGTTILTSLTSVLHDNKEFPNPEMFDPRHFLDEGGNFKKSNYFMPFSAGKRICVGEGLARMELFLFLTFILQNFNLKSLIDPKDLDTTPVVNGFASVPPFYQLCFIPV
Cytochrome P450 3A4, sequence (P08684 whole entry): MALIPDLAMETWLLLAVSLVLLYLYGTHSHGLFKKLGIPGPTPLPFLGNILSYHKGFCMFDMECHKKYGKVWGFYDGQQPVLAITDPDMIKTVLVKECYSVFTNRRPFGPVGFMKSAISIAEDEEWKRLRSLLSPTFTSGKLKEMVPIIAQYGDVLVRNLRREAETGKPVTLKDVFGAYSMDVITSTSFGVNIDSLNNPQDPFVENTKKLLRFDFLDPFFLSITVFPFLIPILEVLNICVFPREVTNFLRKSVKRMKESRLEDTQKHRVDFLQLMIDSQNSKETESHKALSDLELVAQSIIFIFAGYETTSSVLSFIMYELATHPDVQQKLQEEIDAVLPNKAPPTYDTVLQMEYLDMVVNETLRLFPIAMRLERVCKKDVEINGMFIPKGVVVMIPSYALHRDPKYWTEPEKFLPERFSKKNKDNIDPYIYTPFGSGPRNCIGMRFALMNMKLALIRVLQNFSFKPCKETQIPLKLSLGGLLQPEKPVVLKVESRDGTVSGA

Cc1cc(C(C)(C)C)c(O)c(C)c1CC1=NCCN1 [OXYMETAZOLINE]
metabolite_detected: Cytochrome P450 2C19 [1] | [2] | [3] | [4] | [5] | Liver microsome [6] | Liver microsome [7] | Liver microsome [8] | [9] | [10] | Cytochrome P450 2C19 [11]
metabolite_not_detected: Cytochrome P450 1A2 | Cytochrome P450 2C8 | Cytochrome P450 3A4
